# Results published in paper PMC4106900 (Journal of medicinal chemistry, 2012).
# Where a name gives a salt, the structure may show the parent alone.
# Columns and labels:
# [1] = Stability of formulated [18F]13 by analytical reverse-phase HPLC; format: physicochemical; settings: saline/ethanol (9:1, total 10 mL)
# [2] = Small-animal PET imaging, baseline brain uptake of [18F]13; format: in vivo, mouse
# [3] = Ex vivo determination of radiometabolites in mouse plasma, liver and brain
# [4] = target: emopamil binding protein (EBP); settings: read-out: Ki for EBP; cited from earlier work
# [5] = target: vesicular acetylcholine transporter (VAChT); settings: read-out: Ki for VAChT; cited from earlier work
# [6] = cited from earlier work; for time of maximum uptake in the brain post injection: normal mice
# [7] = target: S1R; settings: read-out: Ki for S1R; cited from earlier work
# [8] = test system: 59 targets (non-SR sites); assay: NovaScreen and in-house profile of 59 targets; format: binding; settings: 10,000 nM screening concentration
# [9] = test system: α2-adrenoceptors; assay: NovaScreen radioligand displacement screen; format: binding; settings: 100 nM screening concentration
# [10] = test system: peripheral muscarinic receptors; assay: NovaScreen radioligand displacement screen; format: binding; settings: 100 nM screening concentration
# [11] = test system: neuronal (α-bungarotoxin insensitive) nicotinic receptors; assay: NovaScreen radioligand displacement screen; format: binding; settings: 100 nM screening concentration
# [12] = test system: opioid receptors; assay: Radioligand displacement screen; format: binding; settings: 100 nM screening concentration
# [13] = test system: calcium L type channels; assay: NovaScreen radioligand displacement screen; format: binding; settings: 100 nM screening concentration
# [14] = test system: sodium, site 2 channels; assay: NovaScreen radioligand displacement screen; format: binding; settings: 100 nM screening concentration
# [15] = target: acetylcholine esterase (Homo sapiens, UniProt P22303); assay: NovaScreen radioligand displacement screen; format: binding; settings: 100 nM screening concentration
# Chain of acetylcholine esterase (P22303 32-614): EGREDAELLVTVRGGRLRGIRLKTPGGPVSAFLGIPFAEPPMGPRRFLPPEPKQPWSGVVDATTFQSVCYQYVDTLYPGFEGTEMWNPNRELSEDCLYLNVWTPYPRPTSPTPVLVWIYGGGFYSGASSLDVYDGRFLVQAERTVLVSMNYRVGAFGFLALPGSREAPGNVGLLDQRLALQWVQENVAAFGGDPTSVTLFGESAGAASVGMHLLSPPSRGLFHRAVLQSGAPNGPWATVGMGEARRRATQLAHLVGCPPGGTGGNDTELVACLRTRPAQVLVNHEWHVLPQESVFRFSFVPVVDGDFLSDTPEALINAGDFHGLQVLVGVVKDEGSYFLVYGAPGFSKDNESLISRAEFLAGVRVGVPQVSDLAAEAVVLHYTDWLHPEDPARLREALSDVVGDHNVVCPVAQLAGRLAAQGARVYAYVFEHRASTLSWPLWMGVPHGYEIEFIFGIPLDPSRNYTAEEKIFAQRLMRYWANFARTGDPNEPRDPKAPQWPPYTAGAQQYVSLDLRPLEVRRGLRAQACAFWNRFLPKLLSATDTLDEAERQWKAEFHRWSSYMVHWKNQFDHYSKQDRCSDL
# [16] = In vitro half-life in rat liver microsomes
# [17] = target: S1Rs (Mus musculus, UniProt O55242); assay: Small-animal PET blocking studies of [18F]13 binding in brain; format: in vivo; settings: pre-treatment 1 mg/kg, 10 min prior to iv [18F]13, whole mouse brain
# Chain of S1Rs (O55242 whole entry): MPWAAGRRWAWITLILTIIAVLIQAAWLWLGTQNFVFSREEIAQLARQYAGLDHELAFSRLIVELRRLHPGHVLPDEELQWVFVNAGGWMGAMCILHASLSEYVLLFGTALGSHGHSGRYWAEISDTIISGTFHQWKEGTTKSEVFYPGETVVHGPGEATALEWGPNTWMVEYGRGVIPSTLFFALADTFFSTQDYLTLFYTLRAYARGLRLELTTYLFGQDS
compound,measurement,setting,value
"O=c1sc2cc(CCCF)ccc2n1CCN1CCCCCC1 [[^18F]13, 6-(3-fluoropropyl)-3-(2-(azepan-1-yl)ethyl)benzo[d]thiazol-2(3H)-one]",time formulated tracer shown to be stable,[1],at least 5.5 hours
same,brain uptake at 60 min,"[2]; baseline TAC, whole mouse brain",6 %ID/g
same,maximum uptake in brain,"[2]; baseline TAC, whole mouse brain, within the first few minutes",~ 17 %ID/g
same,brain uptake at 60 min post injection as percent of maximum,[2]; mouse brain,65%
same,percentage of intact tracer in plasma,[3]; 30 min post administration,60%
same,percentage of intact tracer in plasma,[3]; 60 min post administration,50%
same,percentage of intact tracer in brain,[3]; throughout the study (30 and 60 min),100%
COc1cc(CCN2CCN(CCCc3ccccc3)CC2)ccc1O[11CH3] [compound 3],Ki,[4],1.7 nM
same,Ki,[5],50 nM
COc1cc(CCN2CCN(CCCc3ccccc3)CC2)ccc1OC[18F] [compound 4],time of maximum uptake in the brain post injection,[6],30 min
FCCC1OC2(CCN(Cc3ccccc3)CC2)c2ccccc21 (centres unmarked) [compound 8],brain level at 60 min post injection as percent of maximum,"[6]; mouse brain, biodistribution",81%
same,time of maximum uptake in the brain post injection,[6],30 min
CCCc1ccc2c(c1)sc(=O)n2CCN1CCCCCC1 [compound 9],Ki,[7],0.56 nM
"O=c1sc2cc(CCCF)ccc2n1CCN1CCCCCC1 [compound 13, 3-(2-(azepan-1-yl)ethyl)-6-(3-fluoropropyl)benzo[d]thiazol-2(3H)-one hydrochloride]",displacement of the radioligand,[8],< 50%
same,displacement of the radioligand,[9],< 50%
same,displacement of the radioligand,[10],< 50%
same,displacement of the radioligand,[11],< 50%
same,displacement of the radioligand,[12],< 50%
same,displacement of the radioligand,[13],< 50%
same,displacement of the radioligand,[14],< 50%
same,displacement of the radioligand,[15],< 50%
same,clearance,[16],0.18 mL/min/g
"CN(C)CCN(C)CCc1ccc(Cl)c(Cl)c1 [compound 18, N-[2-(3,4-dichlorophenyl)ethyl]-N-methyl-2-(dimethylamino)-ethylamine]",reduction of [18F]13 binding in the brain at 60 min,[17],81%
